According to patent publication US8795977B2, “Method for screening a potential modulator compound of a taste receptor” (Conopco, Inc., priority 2009, dated 2014):

Target: T1, T1R1/T1R3 umami receptor (Homo sapiens, UniProt Q7RTX0+Q7RTX1, C757R)
T1 construct: expressed in transfected cells; host or cells: HEK293 cells, transiently transfected (Lipofectamine 2000)
T1 sequence (Q7RTX1 21-841): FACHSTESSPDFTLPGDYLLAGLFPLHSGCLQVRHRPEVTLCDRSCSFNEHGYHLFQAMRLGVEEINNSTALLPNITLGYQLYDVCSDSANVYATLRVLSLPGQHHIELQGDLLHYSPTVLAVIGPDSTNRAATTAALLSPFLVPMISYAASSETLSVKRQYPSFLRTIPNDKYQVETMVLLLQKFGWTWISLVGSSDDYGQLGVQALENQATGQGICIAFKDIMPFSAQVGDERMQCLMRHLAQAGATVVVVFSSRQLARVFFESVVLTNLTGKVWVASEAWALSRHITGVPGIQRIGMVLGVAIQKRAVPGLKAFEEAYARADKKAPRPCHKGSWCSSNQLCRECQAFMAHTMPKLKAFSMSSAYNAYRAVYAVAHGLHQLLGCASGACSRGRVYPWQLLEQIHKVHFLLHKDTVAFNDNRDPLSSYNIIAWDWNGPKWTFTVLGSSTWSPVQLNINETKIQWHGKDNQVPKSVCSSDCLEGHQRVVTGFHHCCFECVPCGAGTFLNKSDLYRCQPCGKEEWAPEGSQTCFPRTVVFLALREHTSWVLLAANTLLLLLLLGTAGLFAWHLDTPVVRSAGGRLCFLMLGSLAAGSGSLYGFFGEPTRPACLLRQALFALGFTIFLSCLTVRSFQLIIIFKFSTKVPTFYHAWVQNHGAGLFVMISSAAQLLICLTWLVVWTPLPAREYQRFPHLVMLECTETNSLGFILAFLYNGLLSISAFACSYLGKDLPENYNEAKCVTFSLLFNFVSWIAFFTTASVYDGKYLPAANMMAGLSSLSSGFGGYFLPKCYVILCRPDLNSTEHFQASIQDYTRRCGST
T1 sequence (Q7RTX0 with tags, fused parts or gaps C757R): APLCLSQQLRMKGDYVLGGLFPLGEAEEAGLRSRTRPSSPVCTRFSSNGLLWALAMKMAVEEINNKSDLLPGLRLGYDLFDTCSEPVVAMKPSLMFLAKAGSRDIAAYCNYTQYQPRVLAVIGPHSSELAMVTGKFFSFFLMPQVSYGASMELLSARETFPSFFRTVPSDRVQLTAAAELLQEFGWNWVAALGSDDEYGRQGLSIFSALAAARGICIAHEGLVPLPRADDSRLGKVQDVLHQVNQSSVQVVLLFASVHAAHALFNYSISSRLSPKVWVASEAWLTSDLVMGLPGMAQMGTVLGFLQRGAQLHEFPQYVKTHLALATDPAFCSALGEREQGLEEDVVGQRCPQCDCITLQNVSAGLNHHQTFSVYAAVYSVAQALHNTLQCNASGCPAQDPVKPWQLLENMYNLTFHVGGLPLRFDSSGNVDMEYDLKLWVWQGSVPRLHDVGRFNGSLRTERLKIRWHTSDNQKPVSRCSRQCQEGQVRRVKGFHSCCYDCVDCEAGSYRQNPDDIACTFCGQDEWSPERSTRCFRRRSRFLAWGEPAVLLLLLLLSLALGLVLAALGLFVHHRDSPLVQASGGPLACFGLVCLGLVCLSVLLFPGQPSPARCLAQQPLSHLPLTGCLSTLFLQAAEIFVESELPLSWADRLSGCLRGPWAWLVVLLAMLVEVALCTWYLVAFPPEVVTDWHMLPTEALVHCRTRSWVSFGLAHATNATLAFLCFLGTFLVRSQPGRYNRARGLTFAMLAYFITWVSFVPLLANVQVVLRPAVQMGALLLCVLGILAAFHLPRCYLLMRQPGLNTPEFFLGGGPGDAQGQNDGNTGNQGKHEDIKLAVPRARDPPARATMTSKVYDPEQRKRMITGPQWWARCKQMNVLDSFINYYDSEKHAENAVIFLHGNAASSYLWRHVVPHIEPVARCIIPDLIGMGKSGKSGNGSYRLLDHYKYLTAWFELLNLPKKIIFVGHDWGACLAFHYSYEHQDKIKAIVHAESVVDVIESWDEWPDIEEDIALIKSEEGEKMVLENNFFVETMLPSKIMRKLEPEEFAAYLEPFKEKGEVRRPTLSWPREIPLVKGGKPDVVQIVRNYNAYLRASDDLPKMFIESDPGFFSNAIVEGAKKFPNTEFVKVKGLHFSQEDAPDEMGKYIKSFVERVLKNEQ
Assay: BRET assay (T1R1/T1R3-Rluc and GFP-2-β-arrestin-2 in HEK293 cells)
Assay type: cell-based
Set-up: key: +: A BRET signal above the values achieved for buffer alone was defined as umami receptor-specific
Conditions: MSG 10 mM
Procedure: FIG. 2 Activation of the T1R1/T1R3 umami receptor expressed in HEK293-Gα15 cells as measured by BRET assays as described in Example 2. Test solutions (or buffer) as indicated and substrate were added to the cells. The BRET signals were determined as the ratio between readings taken at the acceptor wavelength (515 nm) divided by the signals determined for the donor (400 nm). To correct for background signal due to overlap of donor emission at the acceptor wavelength, the BRET ratio was determined in parallel for cells expressing the donor alone (T1R1/T1R3-Rluc). This BRET background value was subtracted from the BRET value obtained for the cells expressing both BRET partners (BRET=BRET ratio−background ratio). A BRET signal above the values achieved for buffer alone was defined as umami receptor-specific (see also table 2B).
The extracts or crude mixtures described below are examples for natural samples unsuitable for testing with a calcium-based receptor assay due to their high non-specific background signal. They are from different origin and are selected to illustrate a wide range of potential test samples. […] Calcium-Based Receptor Assay: Activation of the T1R1/T1R3 umami receptor expressed in HEK293-Gα15 cells has been measured by monitoring the release of intracellular calcium. […]

## N[C@@H](CCC(=O)O)C(=O)[O-].[Na+] [MSG, Monosodium glutamate]
  T1R1/T1R3 receptor-specific signal, BRET assay: +
